Experimental data: patent US4409325A, “Valproate conjugation using dicarbonyls” (Syva Company, priority 1981, dated 1983)

Tests used:
Antivalproate = assay: Homogeneous enzyme immunoassay for valproate (absorbance difference); type: biochemical; conditions: difference in absorbance×2.667, 340 mn, 10 to 40 seconds
From the text: As previously indicated, the antibodies and enzyme reagents prepared in accordance with the subject invention find particular use in immunoassays for the determination of valproate. A description of the method for carrying out the immunoassay, which is a homogeneous enzyme immunoassay, may be found in U.S. Pat. No. 3,817,837. The method involves combining the enzyme conjugate, the unknown sample suspected of containing valproate, an antibody for valproate in an aqueous buffered medium at temperatures in the range of about 10° to 50°, more usually from about 20° to 40° C., and determining the enzyme activity as compared to the enzyme activity of an assay medium having a known amount of valproate.
In carrying out the assay, a Gilford 300 N microsample spectrophotometer is employed with a Thermocuvette with a flow cell. All readings are made at 340 mn. The following solutions are prepared as reagents for use in the assay.
Sufficient enzyme conjugate to give
a maximum rate of ΔOD equal to
Antivalproate optimized for assay
The protocol employed for carrying out an assay is as follows: A sample, 50 μl is drawn up into a diluter and dispensed with 250 μl of the assay buffer into a one ml Croan cup. A 50 μl aliquot of the diluted sample is drawn up and dispensed with a 250 μl portion of assay buffer into a second Croan cup. Into the second Croan cup is introduced 50 μl of the antibody reagent with 250 μl of the assay buffer, followed by the addition of 50 μl of the enzyme reagent and 250 μl of the assay buffer. Immediately after the enzyme addition, the entire sample is aspirated into the flow cell. After 10 seconds, a first reading is taken, followed by a second reading, after a 40 second interval from aspiration. The results are reported as the difference in absorbance×2.667.

[1] = antiepileptic; cited from earlier work
[2] = anticonvulsant use; cited from earlier work
[3] = humans, cited from earlier work

Structure (SMILES)	ΔOD (Antivalproate; valproate 25 μg/ml)	ΔOD (Antivalproate; valproate 50 μg/ml)	ΔOD (Antivalproate; valproate 75 μg/ml)	ΔOD (Antivalproate; valproate 100 μg/ml)	ΔOD (Antivalproate; valproate 150 μg/ml)	minimum level in serum required for therapeutic efficacy [1] [µg/mL]	toxicity [2]	metabolism [3]	excretion ([3]; urine)
CCCC(CCC)C(=O)[O-].[Na+] [Valproate, sodium di-n-propylacetate]	630	646	666	682	714	≥ 50	low toxicity	–	–
CCCC(CCC)C(=O)O [valproic acid, 2-propylpentanoic acid]	–	–	–	–	–	–	–	metabolized in humans via oxidation predominantly at the positions β and ω to the carboxylic acid	eventually excreted in urine as the free acids or via glucuronide formation
